Measured values as given in patent publication US20030057401A1, “Inhibitor compositions” (priority 1999, published 2003).

Tested on: sessile SRB colonies
Test: Experiment 4: biocidal efficacy for planktonic and sessile bacteria, studs from Robins device, 3 hr contact
Type: cell-based, Sulphate Reducing Bacteria (SRB)
Details: if it can penetrate the glycocalyx
Description: The purpose of killing planktonic SRB is to prevent the formation of sessile SRB colonies. A series of tests has been conducted in which viable sessile cultures have been treated with a range of biocides. Synthetic Seawater [table] Additional nutrients were added to water to encourage bacteria growth. Experiment 4 is a comparison of biocidal efficacy for planktonic and sessile bacteria. Viable SRB colonies are established on studs in a Robins device. The studs are removed, washed in sterile sea water and treated with solutions containing the test biocide. After exposures of 1, 3, 4, 8 or extended periods, coupons are rinsed, scraped and suspended in fresh synthetic sea water. Serial dilutions and ATP analyses are conducted on the samples to determine bacterial activity.

For `O=CCCCC=O` [glutaraldehyde], the “comparative biocidal efficacy on sessile SRB colonies” value was “more effective biocide than quaternary amines”.
